Laboratory results from ChEMBL document CHEMBL1909046, “DrugMatrix in vitro pharmacology data”.

How the values were obtained:
[1] = DRUGMATRIX: Calcium Channel Type L, Phenylalkylamine radioligand binding (ligand: [3H] (-)-Desmethoxyverapamil (D-888)); format: cell membranes, Rattus norvegicus, Wistar, Brain, Membrane; details: Not Active = under 50% inhibition at 10 µM
[2] = target: Sigma non-opioid intracellular receptor 1 (Homo sapiens, UniProt Q99720); experiment: DRUGMATRIX: Sigma1 radioligand binding (ligand: [3H] Haloperidol); format: cell membranes, Jurkat, Membrane; details: Not Active = under 50% inhibition at 10 µM
[3] = DRUGMATRIX: Sodium/nucleoside co-transporter radioligand binding (ligand: nitrobenzylthioinosine); format: cell membranes, Cavia porcellus, Dunkin-Hartley, Cerebral cortex, Membrane; details: Not Active = under 50% inhibition at 10 µM
[4] = DRUGMATRIX: beta-Lactamase enzyme inhibition (substrate: Nitrocefin); design: species or system Bacillus cereus; details: Not Active = under 50% inhibition at 10 µM
[5] = target: Melanocortin receptor 3 (Homo sapiens, UniProt P41968); format: cell membranes, HEK293, Membrane; details: hek293; note: in other assays of this panel Not Active means under 50% inhibition at 10 µM
[6] = target: T1, Caspase-1 (Homo sapiens, UniProt P29466); design: species or system Escherichia coli;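 note: Caspase-1 enzyme inhibition assay with a peptide substrate; in other assays of this panel Not Active means under 50% inhibition at 10 µM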
T1 sequence (P29466 whole entry): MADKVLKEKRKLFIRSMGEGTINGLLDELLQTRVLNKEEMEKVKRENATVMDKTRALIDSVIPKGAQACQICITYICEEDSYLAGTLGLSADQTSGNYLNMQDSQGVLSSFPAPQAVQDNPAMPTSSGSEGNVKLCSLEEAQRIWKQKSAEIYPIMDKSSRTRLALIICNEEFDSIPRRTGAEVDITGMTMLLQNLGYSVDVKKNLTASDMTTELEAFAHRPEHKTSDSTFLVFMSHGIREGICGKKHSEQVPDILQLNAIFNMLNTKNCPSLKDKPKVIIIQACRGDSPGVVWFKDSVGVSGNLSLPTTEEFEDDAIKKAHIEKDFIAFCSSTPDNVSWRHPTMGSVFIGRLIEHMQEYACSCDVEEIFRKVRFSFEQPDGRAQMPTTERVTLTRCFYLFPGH

[7] = DRUGMATRIX: Calcium Channel Type L, Dihydropyridine radioligand binding (ligand: [3H] Nitrendipine); format: cell membranes, Rattus norvegicus, Wistar, Cerebral cortex, Membrane; details: Not Active = under 50% inhibition at 10 µM
[8] = target: T2, C-X-C chemokine receptor type 1 (Homo sapiens, UniProt P25024); note: in other assays of this panel Not Active means under 50% inhibition at 10 µM
T2 sequence (P25024 whole entry): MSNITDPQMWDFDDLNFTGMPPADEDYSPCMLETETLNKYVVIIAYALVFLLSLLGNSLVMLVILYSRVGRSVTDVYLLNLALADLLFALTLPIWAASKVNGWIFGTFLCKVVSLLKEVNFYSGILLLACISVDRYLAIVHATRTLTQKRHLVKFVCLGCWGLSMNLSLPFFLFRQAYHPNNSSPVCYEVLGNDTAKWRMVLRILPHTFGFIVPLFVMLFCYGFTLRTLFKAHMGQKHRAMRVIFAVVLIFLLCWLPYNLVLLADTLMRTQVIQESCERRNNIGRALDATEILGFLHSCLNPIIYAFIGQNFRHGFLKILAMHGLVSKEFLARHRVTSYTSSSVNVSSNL

Sequence of Melanocortin receptor 3 (P41968 whole entry): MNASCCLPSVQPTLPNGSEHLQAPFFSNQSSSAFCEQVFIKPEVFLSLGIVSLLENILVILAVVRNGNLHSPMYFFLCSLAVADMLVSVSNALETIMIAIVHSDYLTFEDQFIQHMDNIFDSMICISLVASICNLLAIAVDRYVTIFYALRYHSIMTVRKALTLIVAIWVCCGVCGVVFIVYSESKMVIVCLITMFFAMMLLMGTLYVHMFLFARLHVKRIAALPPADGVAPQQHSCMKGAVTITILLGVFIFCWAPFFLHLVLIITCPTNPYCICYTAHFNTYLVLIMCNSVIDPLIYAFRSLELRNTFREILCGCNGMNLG
Sequence of Sigma non-opioid intracellular receptor 1 (Q99720 whole entry): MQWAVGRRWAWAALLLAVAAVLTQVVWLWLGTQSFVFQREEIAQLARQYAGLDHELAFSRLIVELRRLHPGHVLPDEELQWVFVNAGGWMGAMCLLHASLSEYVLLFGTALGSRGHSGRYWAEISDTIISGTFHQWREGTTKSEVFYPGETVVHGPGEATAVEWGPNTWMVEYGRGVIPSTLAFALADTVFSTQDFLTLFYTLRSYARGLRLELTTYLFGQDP

Row | Compound | IC50 [1] | Ki [1] | IC50 ([2]; read-out: IC50) | Ki ([2]; read-out: Ki) | IC50 [3] | Ki [3] | IC50 [4] | Ki [4] | IC50 [5] | IC50 [6] | IC50 [7] | Ki [7] | IC50 [8] | IC50 ([2]; jurkat) | IC50 ([1]; read-out: IC50) | Ki ([1]; read-out: Ki) | Ki ([2]; jurkat) | Ki [5] | Ki [6] | Ki [8]
1 | CC(=O)[C@H]1[C@H](C#N)C[C@H]2[C@@H]3CC=C4C[C@@H](O)CC[C@]4(C)[C@H]3CC[C@@]21C [PREGNENOLONE CARBONITRILE] | Not Active | Not Active | 21300 nM | 8950 nM | Not Active | Not Active | Not Active | Not Active | Not Active | Not Active | Not Active | Not Active | Not Active |  |  |  |  |  |  | 
2 | CCCN(CCC)S(=O)(=O)c1ccc(C(=O)O)cc1 [PROBENECID] | Not Active | Not Active |  |  | Not Active | Not Active | Not Active | Not Active | Not Active | Not Active | Not Active | Not Active | Not Active | Not Active |  |  |  |  |  | 
3 | CCCNCC(O)COc1ccccc1C(=O)CCc1ccccc1 (configuration not stated) [PROPAFENONE] |  |  | 2610 nM | 1100 nM | Not Active | Not Active | Not Active | Not Active | Not Active | Not Active | Not Active | Not Active | Not Active |  | 1740 nM | 1700 nM |  |  |  | 
4 | CCCOc1ccc(C(=O)OCCN(CC)CC)cc1N [PROPARACAINE] | Not Active | Not Active | 238 nM | 100 nM | Not Active | Not Active | Not Active | Not Active | Not Active | Not Active | Not Active | Not Active | Not Active |  |  |  |  |  |  | 
5 | CC(C)c1cccc(C(C)C)c1O [PROPOFOL] | Not Active | Not Active |  |  | Not Active | Not Active | Not Active | Not Active | Not Active | Not Active | Not Active | Not Active | Not Active | Not Active |  |  |  |  |  | 
6 | C[C@@H]1O[C@@H](O[C@@H]2C=C3CC[C@@H]4[C@H](CC[C@]5(C)[C@@H](c6ccc(=O)oc6)CC[C@]45O)[C@@]3(C)CC2)[C@H](O)[C@H](O)[C@H]1O [PROSCILLARIDIN] | Not Active | Not Active |  |  | Not Active | Not Active | Not Active | Not Active | Not Active | Not Active | Not Active | Not Active | Not Active | Not Active |  |  |  |  |  | 
7 | Oc1cccc(O)c1O [PYROGALLOL] | Not Active | Not Active |  |  | Not Active | Not Active | Not Active | Not Active | Not Active | Not Active | Not Active | Not Active | Not Active | Not Active |  |  |  |  |  | 
8 | AURANOFIN | Not Active | Not Active |  |  | Not Active | Not Active | Not Active | Not Active | Not Active | Not Active | Not Active | Not Active | Not Active | Not Active |  |  | Not Active | Not Active | Not Active | Not Active
9 | GADOPENTETATE DIMEGLUMINE | Not Active | Not Active |  |  | Not Active | Not Active | Not Active | Not Active | Not Active | Not Active | Not Active | Not Active | Not Active | Not Active |  |  | Not Active | Not Active | Not Active | Not Active
10 | GENTAMICIN | Not Active | Not Active |  |  | Not Active | Not Active | Not Active | Not Active | Not Active | Not Active | Not Active | Not Active | Not Active | Not Active |  |  | Not Active | Not Active | Not Active | Not Active
11 | GRAMICIDIN | Not Active | Not Active |  |  | Not Active | Not Active | Not Active | Not Active | Not Active | Not Active | Not Active | Not Active | Not Active | Not Active |  |  | Not Active | Not Active | Not Active | Not Active
12 | NYSTATIN | Not Active | Not Active |  |  | Not Active | Not Active | Not Active | Not Active | Not Active | Not Active | Not Active | Not Active | Not Active | Not Active |  |  | Not Active | Not Active | Not Active | Not Active
